The test system of test [1] is Mus musculus. The test is described as follows: In vivo activity tested against C3H mice bearing colon adenocarcinoma -38(colon-38) tumor measured as activity rating at 753 mg/kg (po). It is filed as functional.
The test system of test [2] is Mus musculus. The test is described as follows: In vivo activity tested against C3H mice bearing colon adenocarcinoma -38(colon-38) tumor measured as body weight loss at 753 mg/kg (po). Format: functional.
Test [3] concerns Mus musculus. The test is described as follows: In vivo activity tested against C3H mice bearing colon adenocarcinoma -38(colon-38) tumor measured as % treated/control calculated at 466 mg/kg (po). It is filed as functional.
Test [4] relates to Mus musculus. The test is described as follows: In vivo activity tested against C3H mice bearing colon adenocarcinoma -38(colon-38) tumor measured as % treated/control calculated at 753 mg/kg (po). It is filed as functional.
Test [5] deals with Mus musculus. The test is described as follows: In vivo activity tested against C3H mice bearing colon adenocarcinoma -38(colon-38) tumor, measured as cures at 753 mg/kg (po); 2/5 cures. Format: functional.
Test [6] concerns Mus musculus. The test is described as follows: In vivo activity tested against C3H mice bearing colon adenocarcinoma -38(colon-38) tumor measured as activity rating at 466 mg/kg (po). It is filed as functional.
For test [7], the system named is Mus musculus. The test is described as follows: In vivo activity tested against C3H mice bearing colon adenocarcinoma -38(colon-38) tumor measured as log Kill value was based on tumors that grew at 466 mg/kg (po). It is filed as functional, organism-based. Also noted: dose 466 mg/kg.
Test [8] deals with Mus musculus. The test is described as follows: In vivo activity tested against C3H mice bearing colon adenocarcinoma -38(colon-38) tumor measured as log Kill value was based on tumors that grew at 753 mg/kg (po). It is filed as functional, organism-based. Also noted: dose 753 mg/kg.
The test system of test [9] is Mus musculus. The test is described as follows: In vivo activity tested against C3H mice bearing colon adenocarcinoma -38(colon-38) tumor measured as body weight loss at 466 mg/kg (po). Format: functional.
Test [10] relates to Mus musculus. The test is described as follows: In vivo activity tested against C3H mice bearing colon adenocarcinoma -38(colon-38) tumor, measured as cures at 466 mg/kg (po); 3/5 cures. It is filed as functional.

SMILES strings stand for the structures. Where only a bound is given, the exact number is not on record here.

The term T/C denotes the result in the treated group divided by that in the control group, in per cent. Take `CC(Oc1ccc(Oc2cnc3ccc(Br)cc3n2)cc1)C(=O)O` (stereo not given): the Activity rating with Mus musculus [1] is over 2.8; in the test on Mus musculus [6] it was 2.8. In addition, the Body weight loss in the test on Mus musculus [2] is -12%; in the test on Mus musculus [9] it was -7%. Moreover, the T/C in the test with Mus musculus [3] and in the test on Mus musculus [4] was 0% in each case. The Cures with Mus musculus [5] was found to be 2; with Mus musculus [10] it was 3. Moreover, the Log kill in the test with Mus musculus [7] worked out at 2.1; with Mus musculus [8] it was 3.

The record behind these values is ChEMBL document CHEMBL1134487, “Design, synthesis, and biological evaluation of analogues of the antitumor agent, 2-(4-[(7-chloro-2-quinoxalinyl)oxy]phenoxy)propionic acid (XK469)” (2001).
